This passage reports IC50 results from BindingDB's records for doi:10.1016/j.chembiol.2014.09.011 (Astrazeneca R&D, 2014).

Assay in all cases: AMPD Enzymatic Activity Assay
Conditions in all cases: pH 7.4

One assay concerns the target T1, AMP deaminase 1 (Homo sapiens, UniProt P23109).
T1 sequence (P23109 whole entry): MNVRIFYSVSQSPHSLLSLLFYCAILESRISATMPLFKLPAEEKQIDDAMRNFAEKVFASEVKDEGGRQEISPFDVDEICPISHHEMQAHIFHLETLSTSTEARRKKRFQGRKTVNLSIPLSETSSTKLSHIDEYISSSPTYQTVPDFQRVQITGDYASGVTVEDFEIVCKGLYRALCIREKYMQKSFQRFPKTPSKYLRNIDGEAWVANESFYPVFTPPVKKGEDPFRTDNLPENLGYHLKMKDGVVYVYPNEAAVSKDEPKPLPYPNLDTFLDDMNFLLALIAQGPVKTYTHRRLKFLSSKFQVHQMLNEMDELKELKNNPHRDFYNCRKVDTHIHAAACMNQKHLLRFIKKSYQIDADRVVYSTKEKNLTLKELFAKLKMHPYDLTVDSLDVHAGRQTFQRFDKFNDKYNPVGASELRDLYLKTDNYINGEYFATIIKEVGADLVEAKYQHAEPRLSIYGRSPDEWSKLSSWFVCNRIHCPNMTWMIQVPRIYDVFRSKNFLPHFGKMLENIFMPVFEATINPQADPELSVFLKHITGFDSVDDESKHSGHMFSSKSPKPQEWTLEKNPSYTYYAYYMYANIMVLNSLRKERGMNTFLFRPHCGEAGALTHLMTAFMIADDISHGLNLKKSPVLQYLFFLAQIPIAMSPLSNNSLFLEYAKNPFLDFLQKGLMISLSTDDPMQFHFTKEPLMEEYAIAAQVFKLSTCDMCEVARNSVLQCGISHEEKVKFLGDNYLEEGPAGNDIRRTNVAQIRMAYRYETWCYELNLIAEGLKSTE
The method, then: (§1) AMPD1 was added to buffer A (50 mM HEPES, 150 mM KCl, 5 mM MgCl2, and 0.5 mMglutathione [pH 7.4]) to a concentration of 10 nM. A substrate mix consistingof 2mMNADPH, 6mMa-ketoglutarate, 8mMAMP, and 15 U GDH was prepared in buffer A. Substrate mix ([…]) was added to the plate, followed by centrifugation and incubation for 1 hr. Detection was by absorbance at 340 nm following the conversion of NADPH to NADP+. Recombinant AMPD enzyme activity assays were performed in a 384-well format using the same conditions as described above, except the assay volume was […] and the AMP concentration for the AMPD2 assay was 8 mM. Different AMPD enzyme concentrations were used to have linear reactions: hAMPD1 (4 nM), hAMPD2 (38 nM), hAMPD3 (1 nM), rAMPD1 (116 nM), rAMPD2 (53 nM), rAMPD3 (31 nM), and mAMPD1 (816 nM).

For the next assay, the target named is T2, AMP deaminase 3 (Rattus norvegicus, UniProt O09178).
T2 sequence (O09178 whole entry): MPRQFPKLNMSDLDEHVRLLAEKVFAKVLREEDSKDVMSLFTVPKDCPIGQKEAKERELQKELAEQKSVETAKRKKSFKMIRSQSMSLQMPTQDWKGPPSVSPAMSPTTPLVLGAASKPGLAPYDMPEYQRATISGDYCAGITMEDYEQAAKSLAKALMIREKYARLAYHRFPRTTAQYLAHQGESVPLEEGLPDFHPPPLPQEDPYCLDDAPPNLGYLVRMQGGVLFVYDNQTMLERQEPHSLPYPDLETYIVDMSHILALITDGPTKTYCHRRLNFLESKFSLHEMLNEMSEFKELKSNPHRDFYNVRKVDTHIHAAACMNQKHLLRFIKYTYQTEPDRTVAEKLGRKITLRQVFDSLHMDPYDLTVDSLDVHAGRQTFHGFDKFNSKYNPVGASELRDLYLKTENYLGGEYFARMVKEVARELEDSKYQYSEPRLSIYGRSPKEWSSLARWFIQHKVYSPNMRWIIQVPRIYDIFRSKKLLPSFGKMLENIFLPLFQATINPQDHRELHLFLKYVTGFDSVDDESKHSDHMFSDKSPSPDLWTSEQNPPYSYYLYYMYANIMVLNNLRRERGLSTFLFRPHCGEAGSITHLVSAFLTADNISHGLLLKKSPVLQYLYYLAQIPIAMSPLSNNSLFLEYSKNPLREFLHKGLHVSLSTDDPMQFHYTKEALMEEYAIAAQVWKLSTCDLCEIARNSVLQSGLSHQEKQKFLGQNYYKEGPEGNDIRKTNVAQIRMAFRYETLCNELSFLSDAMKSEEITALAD
The method, then: as §1

Another assay has as its target T3, AMP deaminase 2 (Homo sapiens, UniProt Q01433).
T3 sequence (Q01433 whole entry): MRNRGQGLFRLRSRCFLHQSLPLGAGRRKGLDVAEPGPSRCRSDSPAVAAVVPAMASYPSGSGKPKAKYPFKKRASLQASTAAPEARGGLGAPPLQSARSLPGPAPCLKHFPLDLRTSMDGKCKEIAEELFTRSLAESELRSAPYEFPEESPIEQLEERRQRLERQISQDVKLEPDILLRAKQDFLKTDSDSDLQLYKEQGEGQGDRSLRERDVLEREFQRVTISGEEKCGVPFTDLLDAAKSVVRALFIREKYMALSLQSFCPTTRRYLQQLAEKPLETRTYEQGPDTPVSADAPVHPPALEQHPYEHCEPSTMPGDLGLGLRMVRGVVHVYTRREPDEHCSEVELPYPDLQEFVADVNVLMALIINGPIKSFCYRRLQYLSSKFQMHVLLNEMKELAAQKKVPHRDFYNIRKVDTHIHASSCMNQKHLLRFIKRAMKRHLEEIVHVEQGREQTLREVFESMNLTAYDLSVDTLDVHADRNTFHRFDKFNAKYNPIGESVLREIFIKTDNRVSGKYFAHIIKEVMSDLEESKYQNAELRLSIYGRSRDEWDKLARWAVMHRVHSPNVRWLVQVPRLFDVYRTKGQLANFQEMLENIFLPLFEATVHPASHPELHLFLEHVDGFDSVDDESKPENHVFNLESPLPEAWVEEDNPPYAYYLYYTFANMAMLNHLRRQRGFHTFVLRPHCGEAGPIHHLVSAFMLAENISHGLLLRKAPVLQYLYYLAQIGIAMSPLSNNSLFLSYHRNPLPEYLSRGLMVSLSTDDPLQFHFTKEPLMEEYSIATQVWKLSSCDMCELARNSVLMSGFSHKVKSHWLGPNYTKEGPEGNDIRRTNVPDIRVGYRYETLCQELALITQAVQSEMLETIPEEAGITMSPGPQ
How it is done:
as §1

`C[C@@H](NCc1ccc(-c2ccc(C(=O)O)cn2)cc1)c1cccc2ccncc12` [6-[4-({[(1R)-1-(isoquinolin-8-yl)ethyl]amino}methyl)phenyl]pyridine-3-carboxylic acid (Compound 2)]: the IC50 against AMP deaminase 1 turned out to be 9.2 µM; at AMP deaminase 3 it was 44 µM; against AMP deaminase 2, 32 µM.
Turning to `C[C@H](NCc1ccc(-c2ccc(C(=O)O)cn2)cc1)c1cccc2ccncc12` [6-[4-({[(1S)-1-(isoquinolin-8-yl)ethyl]amino}methyl)phenyl]pyridine-3-carboxylic acid (Compound 3)], the IC50 at AMP deaminase 1 turned out to be 0.038 µM; on AMP deaminase 3 it was 0.4 µM; against AMP deaminase 2, 0.016 µM.

By IC50 is commonly meant the concentration that gives 50% inhibition.
